Laboratory results reported in US9266870B2 (TAISHO PHARMACEUTICAL CO., LTD., priority 2012, dated 2016).
Where two headings read alike, the source gives them in different places.

Tests used:
[1] = molecular target: human orexin-1 receptor (hOX1R) (Homo sapiens (Human), UniProt O43613); assay: Measurement of orexin antagonistic activity (intracellular Ca2+ fluorescence, FDSS), hOX1R; format: cell-based; settings: ligand peptide (modified human orexin-A) 300 pM, maximum fluorescence intensity
Method: (§1) Chinese hamster ovary (CHO) cells forcibly expressing the hOX1R and hOX2R were seeded into a 96 well Black clear bottom plate (Nunc) at 20,000 cells per well, which were cultured in Ham's F-12 medium containing 0.1 mM MEM non-essential amino acids, 0.5 mg/ml G418, 10% fetal bovine serum (all by Invitrogen) for 16 hours under the conditions of 37° C., 5% CO2. After removing the medium, 100 μL of 0.5 μM Fluo-4AM ester (Dojin) in an assay buffer (25 mM HEPES (Dojin), Hank's balanced salt solution (Invitrogen), 0.1% bovine serum albumin, 2.5 mM probenecid, 200 μg/ml Amaranth (all by Sigma-Aldrich), pH 7.4) was added and the cells were incubated for 60 minutes at 37° C., 5% CO2. After removing the assay buffer containing fluo-3AM ester, the test compound was dissolved in dimethyl sulfoxide to be 10 mM and diluted with the assay buffer, 150 μL of which was added and incubated for 30 minutes.
(§2) The reaction was measured for the fluorescence intensity of each well every second for 3 minutes using Functional Drug Screening System (FDSS; Hamamatsu Photonics K.K.), and the antagonistic activity was determined using the maximum fluorescence intensity as the indicator of intracellular Ca2+ concentration.

[2] = molecular target: human orexin-2 receptor (hOX2R) (Homo sapiens (Human), UniProt O43614); assay: Measurement of orexin antagonistic activity (intracellular Ca2+ fluorescence, FDSS), hOX2R; format: cell-based; settings: CHO cells forcibly expressing hOX2R; ligand peptide (modified human orexin-A) 3 nM; maximum fluorescence intensity; read-out: IC50 Value OX2
Method: as §1, with “The antagonistic activities of the test compounds on human orexin-1 receptor (hOX1R) and orexin-2 receptor (hOX2R) were measured by modifying from the method described in literature (Toshikatsu Okumura et al., Biochemical and Biophysical Research Communications 280, 976-981, 2001). Chinese” for “Chinese”
as §2

[3] = CHO cells forcibly expressing hOX1R, read-out: IC50 Value OX1

human orexin-2 receptor (hOX2R), sequence (O43614 whole entry): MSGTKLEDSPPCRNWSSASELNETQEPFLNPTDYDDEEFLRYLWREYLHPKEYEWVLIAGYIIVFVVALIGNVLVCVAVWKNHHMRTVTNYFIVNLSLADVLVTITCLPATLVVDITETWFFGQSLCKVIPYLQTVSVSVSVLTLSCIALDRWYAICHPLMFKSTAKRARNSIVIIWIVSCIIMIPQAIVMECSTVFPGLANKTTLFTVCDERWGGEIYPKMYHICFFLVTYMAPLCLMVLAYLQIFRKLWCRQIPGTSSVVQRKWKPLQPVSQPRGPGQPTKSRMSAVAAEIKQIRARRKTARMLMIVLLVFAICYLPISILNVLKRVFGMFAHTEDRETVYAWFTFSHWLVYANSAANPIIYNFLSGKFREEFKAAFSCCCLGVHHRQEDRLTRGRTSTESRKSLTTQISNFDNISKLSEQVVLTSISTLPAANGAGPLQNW
human orexin-1 receptor (hOX1R), sequence (O43613 whole entry): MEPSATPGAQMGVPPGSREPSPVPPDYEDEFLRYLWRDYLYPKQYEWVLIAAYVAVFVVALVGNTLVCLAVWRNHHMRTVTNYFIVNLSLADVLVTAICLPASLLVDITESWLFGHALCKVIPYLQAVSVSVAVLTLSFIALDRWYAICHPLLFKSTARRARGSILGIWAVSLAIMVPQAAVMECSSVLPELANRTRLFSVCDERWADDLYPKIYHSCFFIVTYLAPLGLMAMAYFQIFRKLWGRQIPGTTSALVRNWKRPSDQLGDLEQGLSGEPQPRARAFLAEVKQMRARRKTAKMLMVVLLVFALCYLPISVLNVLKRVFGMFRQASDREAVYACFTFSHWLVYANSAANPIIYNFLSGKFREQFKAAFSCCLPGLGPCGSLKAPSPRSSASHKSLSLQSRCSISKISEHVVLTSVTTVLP

Compound | IC50 [1, 3] | IC50 [2] | IC50 ([1]; IC50 Value OX1, CHO cells forcibly expressing hOX1R)
Cc1ccc(-n2nccn2)c(C(=O)N2[C@H](Cn3ccc(-c4ccc(F)cn4)n3)OC[C@@H]2C)c1 [Example 9, (−)-[(2S,4S)-2-[[3-(5-fluoropyridin-2-yl)-1H-pyrazol-1-yl]-methyl]-4-methyl-1,3-oxazolidin-3-yl] [5-methyl-2-(2H-1,2,3-triazol-2-yl)phenyl] methanone] | 23.4 nM |  | 
Cc1ccc(-n2nccn2)c(C(=O)N2C[C@@H](C)O[C@H]2Cn2cc(-c3ccc(F)cn3)cn2)c1 [Example 6, (−)-[(2S,5R)-2-[[4-(5-fluoropyridin-2-yl)-1H-pyrazol-1-yl]methyl]-5-methyl-1,3-oxazolidin-3-yl] [5-methyl-2-(2H-1,2,3-triazol-2-yl)phenyl] methanone] | 27.5 nM |  | 
Cc1ccc(-n2nccn2)c(C(=O)N2[C@H](Cn3cc(-c4ccc(F)cn4)cn3)OC[C@@H]2C)c1 [Example 10, (−)-[(2S,4S)-2-[[4-(5-fluoropyridin-2-yl)-1H-pyrazol-1-yl]methyl]-4-methyl-1,3-oxazolidin-3-yl] [5-methyl-2-(2H-1,2,3-triazol-2-yl)phenyl] methanone] | 201 nM | 273 nM | 
Cc1ccc(-n2nccn2)c(C(=O)N2CCOC2Cn2ccc(-c3ccc(F)cn3)n2)c1 (single isomer, unassigned; (-)) [Example 1, (−)-(2-{[3-(5-Fluoropyridin-2-yl)-1H-pyrazol-1-yl]methyl}-1,3-oxazolidin-3-yl)[5-methyl-2-(2H-1,2,3-triazol-2-yl)phenyl]methanone] | 4.9 nM |  | 
Cc1ccc(-n2nccn2)c(C(=O)N2CCCOC2Cn2cc(-c3ccc(F)cc3)cn2)c1 (single isomer, unassigned; (-)) [Example 35, (−)-[2-[[4-(4-fluorophenyl)-1H-pyrazol-1-yl]methyl]-1,3-oxazinan-3-yl][5-methyl-2-(2H-1,2,3-triazol-2-yl)phenyl]methanone] |  |  | 0.8 nM
Cc1ccc(-n2nccn2)c(C(=O)N2C[C@H](C)O[C@H]2Cn2cc(-c3ccc(F)cn3)cn2)c1 [Example 5, (−)-[(2S,5S)-2-{[4-(5-Fluoropyridin-2-yl)-1H-pyrazol-1-yl]methyl}-5-methyl-1,3-oxazolidin-3-yl][5-methyl-2-(2H-1,2,3-triazol-2-yl)phenyl]methanone] | 86 nM |  | 
Cc1ccc(-n2nccn2)c(C(=O)N2[C@H](C)CO[C@H]2Cn2ccc(-c3ccc(F)cn3)n2)c1 [Example 7, [(2S,4R)-2-[[3-(5-fluoropyridin-2-yl)-1H-pyrazol-1-yl]-methyl]-4-methyl-1,3-oxazolidin-3-yl] [5-methyl-2-(2H-1,2,3-triazol-2-yl)phenyl] methanone] | 7.2 nM |  | 
O=C(c1cc(F)ccc1-n1nccn1)N1CCOC1Cn1ccc(-c2ccc(F)cn2)n1 (racemic) [Example 12, (±)-(2-[[3-(5-fluoropyridin-2-yl)-1H-pyrazol-1-yl]methyl]-1,3-oxazolidin-3-yl) [5-fluoro-2-(2H-l,2,3-triazol-2-yl)phenyl]methanone] |  | 171 nM | 
Cc1ccc(-n2nccn2)c(C(=O)N2CCCOC2Cn2cc(-c3ccc(F)cn3)cn2)c1 (single isomer, unassigned; (-)) [Example 4, (−)-(2-[[4-(5-fluoropyridin-2-yl)-1H-pyrazol-1-yl]-methyl]-1,3-oxazinan-3-yl)[5-methyl-2-(2H-1,2,3-triazol-2-yl)phenyl] methanone] | 9.6 nM |  | 

The next lines start with results.

IC50 [1, 3] | IC50 [2] | Compound | IC50 ([1]; IC50 Value OX1, CHO cells forcibly expressing hOX1R)
1 nM | 1 nM | Cc1ccc(-c2ncccn2)c(C(=O)N2CCCOC2Cn2ccc(-c3ccc(F)cc3)n2)c1 (single isomer, unassigned; (-)) [Example 41, (−)-[2-{[3-(4-Fluorophenyl)-1H-pyrazol-1-yl]methyl}-1,3-oxazinan-3-yl][5-methyl-2-(pyrimidin-2-yl)phenyl]methanone] | 
2.6 nM | 3 nM | Cc1ccc(-c2ncccn2)c(C(=O)N2CCCOC2Cn2ccc(-c3ccc(F)cn3)n2)c1 (single isomer, unassigned; (-)) [Example 30] | 
3590 nM | 4540 nM | Cc1ccc(-c2ncccn2)c(C(=O)N2CCCOC2Cc2noc(-c3ccc(F)cn3)n2)c1 (racemic) [Example 33, (±)-(2-[[5-(5-fluoropyridin-2-yl)-1,2,4-oxadiazol-3-yl]methyl]-1,3-oxazinan-3-yl) [5-methyl-2-(pyrimidin-2-yl)phenyl]methanone] | 
3.2 nM | 1.2 nM | O=C(c1cc(F)ccc1-n1nccn1)N1CCCOC1Cn1ccc(-c2ccc(F)cn2)n1 (single isomer, unassigned; (-)) [Example 29, (−)-(2-[[3-(5-fluoropyridin-2-yl)-1H-pyrazol-1-yl]methyl]-1,3-oxazinan-3-yl)[5-fluoro-2-(2H-1,2,3-triazol-2-yl)phenyl]methanone] | 
5.1 nM |  | Cc1ccc(-n2nccn2)c(C(=O)N2CCOC2Cn2ccc(-c3ccc(F)cc3)n2)c1 (racemic) [Example 17, (±)-(2-[[3-(4-fluorophenyl)-1H-pyrazol-1-yl]methyl]-1,3-oxazolidin-3-yl)[5-methyl-2-2H-1,2,3-triazol-2-yl) phenyl]methanone] | 
60.4 nM |  | O=C(c1cc(F)ccc1-c1ncccn1)N1CCCOC1Cc1cnn(-c2ccc(F)cn2)c1 (single isomer, unassigned; (-)) [Example 44, (−)-[2-[[1-(5-fluoropyridin-2-yl)-1H-pyrazol-4-yl]methyl]-1,3-oxazinan-3-yl] [5-fluoro-2-(pyrimidin-2-yl)phenyl]methanone] | 
81.2 nM | 46.6 nM | Cc1ccc(-n2nccn2)c(C(=O)N2[C@H](Cn3cc(-c4ccc(F)cn4)cn3)OCC[C@@H]2C)c1 [Example 39, [(2S,4S)-2-{[4-(5-Fluoropyridin-2-yl)-1H-pyrazol-1-yl]methyl}-4-methyl-1,3-oxazinan-3-yl}[5-methyl-2-(2H-1,2,3-triazol-2-yl)phenyl]methanone] | 
76.8 nM | 233 nM | O=C(c1cc(F)ccc1-n1nccn1)N1CCOC1Cn1ccc(-c2ccc(F)cc2)n1 (racemic) [Example 19, (±)-(2-[[3-(4-fluorophenyl)-1H-pyrazol-1-yl]methyl]-1,3-oxazolidin-3-yl)[5-fluoro-2-(2H-1,2,3-triazol-2-yl)phenyl]methanone] | 
8.3 nM |  | Cc1ccc(-n2nccn2)c(C(=O)N2CC(C)COC2Cn2cc(-c3ccc(F)cn3)cn2)c1 (single isomer, unassigned; (-)) [Example 40, (−)-[(2S*,5S*)-2-{[4-(5-Fluoropyridin-2-yl)-1H-pyrazol-1-yl]methyl}-5-methyl-1,3-oxazinan-3-yl][5-methyl-2-(2H-1,2,3-triazol-2-yl)phenyl]methanone] | 
 | 26.7 nM | Cc1ccc(-c2ncccn2)c(C(=O)N2CCOC2Cn2cc(-c3ccc(F)cc3)cn2)c1 (racemic) [Example 24, (±)-(2-[[4-(4-fluorophenyl)-1H-pyrazol-1-yl]methyl]-1,3-oxazolidin-3-yl)[5-methyl-2-(pyrimidin-2-yl)phenyl]methanone] | 
2.6 nM |  | Cc1ccc(-c2ncccn2)c(C(=O)N2CCCOC2Cn2cc(-c3ccc(F)cc3)cn2)c1 (single isomer, unassigned; (-)) [Example 43, (−)-[2-[[4-(4-fluorophenyl)-1H-pyrazol-1-yl]methyl]-1,3-oxazinan-3-yl][5-methyl-2-(pyrimidin-2-yl)phenyl]methanone] | 
3.4 nM |  | Cc1ccc(-n2nccn2)c(C(=O)N2CCCOC2Cc2cnn(-c3ccc(F)cn3)c2)c1 (single isomer, unassigned; (-)) [Example 47, (−)-[2-{[1-(5-Fluoropyridin-2-yl)-1H-pyrazol-4-yl]methyl}-1,3-oxazinan-3-yl][5-methyl-2-(2H-1,2,3-triazol-2-yl)phenyl]methanone] | 
0.8 nM |  | Cc1ccc(-n2nccn2)c(C(=O)N2CC(C)COC2Cn2cc(-c3ccc(F)cn3)cn2)c1 (single isomer, unassigned; (-)) [Example 49, (−)-[(2S*,5R*)-2-{[4-(5-Fluoropyridin-2-yl)-1H-pyrazol-1-yl]methyl}-5-methyl-1,3-oxazinan-3-yl][5-methyl-2-(2H-1,2,3-triazol-2-yl)phenyl]methanone] | 
